This note sets out measurements from publication PMC9110600, “Purification, identification and characterization of Nag2 N-acetylglucosaminidase from Trichoderma virens strain mango” (Botanical Studies, 2022).

In this test the target is T1, TvmNAG2 (Trichoderma virens, UniProt G9MXZ5).
T1 construct: gene NAG2; mature (signal peptide removed)
The test is described as follows: p-nitrophenol release at […] nm, Lineweaver-Burk. It counts as biochemical. The note with it: standard assay: 50 mM phosphate buffer pH 5, 65 °C, 30 min.

As a reminder, the Km is the substrate concentration at which the rate is half of its maximum.

Molecules are shown by their SMILES.

T1 sequence (G9MXZ5 entry or part of it): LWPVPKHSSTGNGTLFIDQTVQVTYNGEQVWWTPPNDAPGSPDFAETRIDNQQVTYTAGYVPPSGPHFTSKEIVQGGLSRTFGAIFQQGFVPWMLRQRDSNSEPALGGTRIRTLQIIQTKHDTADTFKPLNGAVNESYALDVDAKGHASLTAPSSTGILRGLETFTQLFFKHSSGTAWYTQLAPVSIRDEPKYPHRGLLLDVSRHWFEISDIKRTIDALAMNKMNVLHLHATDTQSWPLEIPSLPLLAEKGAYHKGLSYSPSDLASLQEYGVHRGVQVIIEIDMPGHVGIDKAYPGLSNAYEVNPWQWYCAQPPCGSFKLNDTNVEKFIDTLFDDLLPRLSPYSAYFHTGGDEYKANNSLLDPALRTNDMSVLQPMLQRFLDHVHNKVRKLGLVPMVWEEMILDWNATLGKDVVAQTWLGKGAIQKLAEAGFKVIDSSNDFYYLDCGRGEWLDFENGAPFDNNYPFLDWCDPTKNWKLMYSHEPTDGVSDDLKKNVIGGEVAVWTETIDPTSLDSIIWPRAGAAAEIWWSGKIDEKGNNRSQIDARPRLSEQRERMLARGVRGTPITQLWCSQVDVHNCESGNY

As for `CC(=O)N[C@H]1[C@H](Oc2ccc([N+](=O)[O-])cc2)O[C@H](CO)[C@@H](O)[C@@H]1O` [pNP-NAG], the Km was roughly 450 µM.
